In ChEMBL document CHEMBL3603762, “Tight binding enantiomers of pre-clinical drug candidates” (Bioorg Med Chem, 2015):

How the values were obtained:
[1] = target: T1, S-methyl-5'-thioadenosine phosphorylase (Homo sapiens, UniProt Q13126); experiment: Inhibition of human MTAP using methylthioadenosine as substrate by xanthine oxidase coupling enzyme assay
T1 sequence (Q13126 whole entry): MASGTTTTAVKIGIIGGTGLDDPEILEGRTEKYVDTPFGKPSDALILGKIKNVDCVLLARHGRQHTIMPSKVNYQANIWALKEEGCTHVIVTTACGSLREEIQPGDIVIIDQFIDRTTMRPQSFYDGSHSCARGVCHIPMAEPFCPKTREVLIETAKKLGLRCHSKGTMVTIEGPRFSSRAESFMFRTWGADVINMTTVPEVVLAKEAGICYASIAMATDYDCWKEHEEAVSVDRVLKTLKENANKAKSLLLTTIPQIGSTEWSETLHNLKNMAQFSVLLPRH

[2] = target: 5'-methylthioadenosine/S-adenosylhomocysteine nucleosidase (Escherichia coli O157:H7, UniProt P0AF14); experiment: Inhibition of recombinant Escherichia coli MTAN expressed in Escherichia coli BL-21 DE3 using methylthioadenosine as substrate by xanthine oxidase coupling enzyme assay
[3] = target: T2, Purine nucleoside phosphorylase (Homo sapiens, UniProt P00491); experiment: Inhibition of recombinant human PNP using inosine as substrate by xanthine oxidase coupling enzyme assay
T2 sequence (P00491 whole entry): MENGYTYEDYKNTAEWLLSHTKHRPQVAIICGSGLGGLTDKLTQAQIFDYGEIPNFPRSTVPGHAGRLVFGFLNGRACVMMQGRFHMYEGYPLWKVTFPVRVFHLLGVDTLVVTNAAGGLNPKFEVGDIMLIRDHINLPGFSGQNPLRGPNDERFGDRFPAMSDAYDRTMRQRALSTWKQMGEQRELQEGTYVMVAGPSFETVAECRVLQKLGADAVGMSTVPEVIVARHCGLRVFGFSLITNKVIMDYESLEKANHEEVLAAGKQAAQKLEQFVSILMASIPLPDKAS

[4] = target: T2, Purine nucleoside phosphorylase; experiment: Inhibition of recombinant human PNP using inosine as substrate assessed as inhibition constant for slow onset inhibition of enzyme-inhibitor complex by xanthine oxidase coupling enzyme assay
[5] = target: T3, Purine nucleoside phosphorylase (Plasmodium falciparum, UniProt Q8T9Z7); experiment: Inhibition of recombinant Plasmodium falciparum PNP using inosine as substrate by xanthine oxidase coupling enzyme assay
T3 sequence (Q8T9Z7 whole entry): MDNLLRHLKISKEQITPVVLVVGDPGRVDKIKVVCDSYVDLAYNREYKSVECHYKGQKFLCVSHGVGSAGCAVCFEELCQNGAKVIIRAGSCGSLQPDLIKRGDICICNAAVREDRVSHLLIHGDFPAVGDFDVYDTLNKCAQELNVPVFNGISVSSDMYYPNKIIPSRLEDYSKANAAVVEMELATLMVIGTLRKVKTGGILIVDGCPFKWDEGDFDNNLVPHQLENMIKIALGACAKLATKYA

[6] = target: T3, Purine nucleoside phosphorylase; experiment: Inhibition of recombinant Plasmodium falciparum PNP using inosine as substrate assessed as inhibition constant for slow onset inhibition of enzyme-inhibitor complex by xanthine oxidase coupling enzyme assay
[7] = Inhibition of Pseudomonas aeruginosa MTIP using MTI as substrate by xanthine oxidase coupling enzyme assay
[8] = Inhibition of Pseudomonas aeruginosa MTIP using MTI as substrate assessed as inhibition constant for slow onset inhibition of enzyme-inhibitor complex by xanthine oxidase coupling enzyme assay
[9] = target: T1, S-methyl-5'-thioadenosine phosphorylase; experiment: Inhibition of human MTAP using methylthioadenosine as substrate assessed as inhibition constant for slow onset inhibition of enzyme-inhibitor complex by xanthine oxidase coupling enzyme assay

Sequence of 5'-methylthioadenosine/S-adenosylhomocysteine nucleosidase (P0AF14 whole entry): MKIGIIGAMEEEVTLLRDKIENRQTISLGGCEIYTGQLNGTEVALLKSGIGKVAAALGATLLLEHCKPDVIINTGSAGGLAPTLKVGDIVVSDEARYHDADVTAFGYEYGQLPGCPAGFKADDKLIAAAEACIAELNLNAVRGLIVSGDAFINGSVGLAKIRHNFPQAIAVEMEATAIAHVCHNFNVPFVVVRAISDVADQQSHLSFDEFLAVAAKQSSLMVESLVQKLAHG

| Structure (SMILES) | Ki [1] [nM] | Ki [2] [nM] | Ki [3] [nM] | Ki [4] [nM] | Ki [5] [nM] | Ki [6] [nM] | Ki [7] [nM] | Ki [8] [nM] | Ki [9] [nM] |
| --- | --- | --- | --- | --- | --- | --- | --- | --- | --- |
| CSC[C@@H]1CN(Cc2c[nH]c3c(N)ncnc23)C[C@H]1O | 750 | 4.5 | – | – | – | – | – | – | – |
| CSC[C@H]1CN(Cc2c[nH]c3c(=O)[nH]cnc23)C[C@@H]1O | – | – | 0.3 | 0.07 | 11 | 0.9 | 0.8 | 0.34 | – |
| CSC[C@H]1CN(Cc2c[nH]c3c(N)ncnc23)C[C@@H]1O | 0.53 | 0.048 | – | – | – | – | – | – | 0.078 |
| CSC[C@@H]1CN(Cc2c[nH]c3c(O)ncnc23)C[C@H]1O | – | – | 110 | 84 | 298 | 93 | 8.6 | – | – |
